This note sets out measurements from US20250188065A1, “LIGHT-CONTROLLED BIOORTHOGONAL TETRAZINE LIGATION” (The Regents of the University Of California, priority 2020, published 2025).

Data set [1] in a line: Stability in 4-methylpiperidine/DMF solution (Fmoc deprotection conditions). The class given is physicochemical. The source says:
Although tetrazine ligation is a widely used bioorthogonal tool, tetrazine-containing amino acid has been rarely explored in the solid-phase peptide synthesis (SPPS) due to dramatic degradations of tetrazines under the protection conditions, such as 4-methylpiperidine/DMF solution. Markedly, photocaged dihydrotetrazine 1a proves to be stable in the presence of 4-methylpiperidine/DMF solution, so that we were able to employ photocaged dihydrotetrazine-containing amino acid in SPPS and obtained the desired tetrazine-containing peptide in the late stage. Here we have synthesized unnatural amino acid photocaged dihydrotetrazine-lysine 1b (12 mg, 15 μmol) and obtained a five-amino-acid peptide 1c through practical SPPS in 49% yield (FIG. 3A). After irradiation of dihydrotetrazine-peptide 1c (10 μM) for 2 minutes in PBS at 37° C., tetrazine-peptide 2c could been readily achieved, which contains two common bioorthogonal groups, including an azido group and a tetrazine group.
Considering the stability of photocaged dihydrotetrazines, we asked if such groups could act as photoprotection moieties, masking latent tetrazines through harsh conditions that would normally be degradative. For example, in 4-methylpiperidine/DMF solution, 40% of tetrazine 2a degrades in 30 minutes. […] Therefore, we hypothesized that photocaged dihydrotetrazines would be tolerated during SPPS. […]

Data set [2] can be described thus: Second-order rate constant of tetrazine ligation with strained dienophile. The settings on record: with TCO-OH; disappearance of tetrazine absorption at 521 nm, pseudo first-order conditions. The source says: (§1) A photocaged dihydrotetrazine should be stable in aqueous solution and the dihydrotetrazine should rapidly be oxidized to tetrazine by air. With this hypothesis in mind, we synthesized photocaged dihydrotetrazine 1a from 3-(but-3-yn-1-yl)-6-phenyl-1,2,4,5-tetrazine, which could be converted to the corresponding dihydrotetrazine using the reductant thiourea dioxide (FIG. 1B). 1-(2-Nitrophenyl)ethyl carbamate was investigated as the photocleavable functional group, due to its sensitivity to visible blue light (28) and biocompatibility (29). After reacting the dihydrotetrazine intermediate with the selected photocleavable group, the desired product 1-(2-nitrophenyl)ethyl 6-(but-3-yn-1-yl)-3-phenyl-1,2,4,5-tetrazine-1(4H)-carboxylate photocaged dihydrotetrazine 1a was obtained. Nuclear magnetic resonance (NMR) studies confirmed that the secondary amine adjacent to the alkyl group of dihydrotetrazine 1a is functionalized. We analyzed light-triggered tetrazine formation from photocaged dihydrotetrazine 1a (FIGS. 2A-2B). […] We measured a second-order rate constant of 101±3 M^−1 s^−1 between 2a and a model strained dienophile, trans-4-cycloocten-1-ol (TCO-OH), by monitoring the disappearance of the characteristic tetrazine visible absorption at 521 nm under pseudo first-order conditions (13).

Data set [3] deals with Hep 3B human liver cancer cells. Briefly: Cell viability after light-activated tetrazine prodrug therapy. The class given is cell-based. Conditions: for influence on cell viability, agent alone: 1a 8 μM or TCO-Dox 3c 5.5 μM alone; for influence on cell viability, agent alone with irradiation: LED light 2 minutes, 1a 8 μM, TCO-Dox 3c 5.5 μM or side product 4c 5.5 μM alone. The procedure:
FIGS. 5A-5B. Light-activated tetrazine prodrug therapy in Hep 3B cancer cells. FIG. 5A: Application of light-controlled tetrazine ligation to release the chemotherapeutic doxorubicin in the presence of living Hep 3B cancer cells. Dox, doxorubicin. FIG. 5B: Cell viability of Hep 3B cancer cells after treatments with photocaged dihydrotetrazine 1a (8 μM), TCO-Dox 3c (5.5 μM), side product 4c (5.5 μM), and Dox 5a (5.5 μM) with or without irradiation by LED light (405 nm, 18 W) for 2 minutes, followed by incubation at 37° C. for 24 hours. Error bars indicate standard error of mean (SEM), which are measured from 3 replicates. Statistically significant differences in cell viability between no treatment and other means are indicated: **P<0.01. ns, not significant.
Based on the positive dual activation results obtained from the in vitro experiments, we next tested if light-triggered tetrazine ligation enabled prodrug therapy could be carried out in the presence of live cancer cells (FIG. 5B). […] Loss of cell viability was similar to that observed when cells were directly treated with Dox […] (5.5 μM) under the same conditions.
Based on the positive results obtained, we tested whether light-triggered drug delivery could be carried out in the presence of living cancer cells (FIG. 5B). […] However, upon irradiation with LED light (405 nm, 18W) for 2 minutes, followed by incubation for 24 hours, a 75.1±3% reduction of cell viability was observed. The loss of cell viability was similar to that observed when cells were directly treated with Dox 5a (5.5 μM) under the same conditions.

Data set [4] can be described thus: Stability of photocaged dihydrotetrazine in aqueous solution / PBS / cell lysate without irradiation. The settings on record: absence of irradiation, 37° C. The class given is physicochemical.
Excerpt: We initiated our studies by synthesizing photocaged dihydrotetrazines 1. Ideally, photocaged dihydrotetrazine 1 should be stable in aqueous solution and the uncaged dihydrotetrazine should rapidly air oxidize to tetrazine 2. With these criteria in mind, we chose 3-(but-3-yn-1-yl)-6-phenyl-[…]1,2,4,5-tetrazine as a model building block, which we reduced to the corresponding dihydrotetrazine. We decided to include a terminal alkyne so that the photocaged dihydrotetrazine could be conjugated to functional molecules by copper-catalyzed azide-alkyne cycloaddition. For the photocleavable protecting group, we decided to utilize 1-(2-nitrophenyl)ethyl carbamate, due to its sensitivity to visible light, and its previous use in cellular studies. […] In the absence of irradiation, 1a is stable in aqueous solution at 37° C. with open air for over 4 days. Having photocaged dihydrotetrazines 1 in hand, we next characterized product formation after visible light triggered decaging (FIG. 2A). […] The resulting dihydrotetrazine intermediate is spontaneously oxidized by air, generating the desired 3-(but-3-yn-1-yl)-6-phenyl-1,2,4,5-tetrazine 2a.
as §1, with “After reacting the dihydrotetrazine intermediate with the selected photocleavable group, the desired product 1-(2-nitrophenyl)ethyl 6-(but-3-yn-1-yl)-3-phenyl-1,2,4,5-tetrazine-1(4H)-carboxylate photocaged dihydrotetrazine 1a was obtained. Nuclear magnetic resonance (NMR) studies confirmed that the secondary amine adjacent to the alkyl group of dihydrotetrazine 1a is functionalized.” left out

Entries after “also recorded” stand apart in the source; their conditions may differ.

Take `C#CCCc1nnc(-c2ccccc2)nn1` [2a, 3-(but-3-yn-1-yl)-6-phenyl-1,2,4,5-tetrazine]: the “degradation in 4-methylpiperidine/DMF solution” value in data set [1] (30 minutes) is listed as 40%. In addition, the second-order rate constant in data set [2] worked out at 101 ± 3 M⁻¹ s⁻¹.
Regarding `COc1cccc2c1C(=O)c1c(O)c3c(c(O)c1C2=O)C[C@@](O)(C(=O)CO)C[C@@H]3O[C@H]1C[C@H](N)[C@H](O)[C@H](C)O1` [Dox 5a, doxorubicin, reference compound], the “loss of cell viability compared with irradiated 1a + TCO-Dox 3c mixture” value in data set [3] (direct treatment with Dox 5.5 μM, same conditions) is on record as “similar”.
`COc1cccc2c1C(=O)c1c(O)c3c(c(O)c1C2=O)C[C@@](O)(C(=O)CO)C[C@@H]3O[C@H]1C[C@H](NC(=O)OC2/C=C/CCCCC2)[C@H](O)[C@H](C)O1` (some centres unmarked) [TCO-Dox 3c]: in data set [3], the “influence on cell viability, agent alone” value is given as “no influence on cell viability” and the “influence on cell viability, agent alone with irradiation” value is given as “no influence on cell viability”.
As to `C#CCCC1=NNC(c2ccccc2)=NN1C(=O)OC(C)c1ccccc1[N+](=O)[O-]` (centres unmarked) [1a, 1-(2-nitrophenyl)ethyl 6-(but-3-yn-1-yl)-3-phenyl-1,2,4,5-tetrazine-1(4H)-carboxylate], in data set [3], the “influence on cell viability, agent alone” value was “no influence on cell viability” and the “influence on cell viability, agent alone with irradiation” value is on record as “no influence on cell viability”. In addition, in data set [1] (4-methylpiperidine/DMF solution), the “stability in 4-methylpiperidine/DMF solution” value is given as “stable; also recorded: no detectable degradation”. In addition, the “stable in aqueous solution (time)” value in data set [4] (open air) is listed as “over 4 days”. In data set [4] (PBS or cell lysate), the “decomposition after 4 days of incubation” value is on record as “less than 1%” and the “degradation over 1 day” value is on record as “not observed”.
